# Measured values taken from patent US20140309184A1, “METHODS AND COMPOSITIONS FOR THE TREATMENT OF OVARIAN CANCER” (UNIVERSITY OF SOUTH ALABAMA, priority 2011, published 2014).
# Entries after “also recorded” stand apart in the source; their conditions may differ.
# Experiments:
# [1] = tested on: SKOV3 cells; assay: MTS cell survival with BMS-833923 plus chemotherapy, Calcusyn combination index; format: cell-based
# Experimental: An MTS in vitro assay was performed using chemotherapy agents commonly used for ovarian cancer (carboplatin, paclitaxel, gemcitabine, topotecan and liposomal doxorubicin) with or without BMS-833923. Ovarian cancer cells ES2, SKOV3, OV90 and TOV112D were seeded at a density of 4,000 cells/well in 96-well tissue culture plates. The following day, fresh medium was added to each well and treated with IC50 concentrations of BMS-833923 as well as the aforementioned chemotherapies and kept at 37° C. in a humidified 5% CO2 atmosphere. Every 24 hr, 20 μl/well of MTS reagent were added in 96 well plates and stored in 37° C. incubator for about 3 hr followed by absorbance reading at 490 nm. The assay was carried out up to 72 hrs at various concentrations described herein.
# With a cross-diagonal multidrug treatment design, the combination index (CI) was calculated to determine mathematical synergy using the median effect method per Calcusyn software (Biosoft, Ferguson, Mo.). This software utilizes multiple drug dose-effect calculations using the Median Effect methods (Chou T. C., et al., Trends Pharmacol. Sci. 4, 450-454). […] The fraction of cells affected (Fa) by carboplatin and BMS-833923 was used to calculate dose response curves and the CI. Statistically Calcusyn quantifies phenomena such as synergism vs. additive effects as well as inhibition (antagonism). Calcusyn software defines synergy as a CI value<1 with the extent of synergism stratified as follows: Possible Synergy: 1.0-0.91; Moderate Synergy: […]; and Clear Synergy: 0.7-0.3. A CI=1 may be indicative of additivity; a CI>1 may be indicative of antagonism.
# Combination indices were calculated to determine mathematical synergy using the median effect method per Calcusyn software (Biosoft, Ferguson, Mo.) as described above. Monolayers of SKOV3 cells were contacted with various chemotherapeutic agents, and BMS-833923 in combination with various chemotherapeutic agents. The chemotherapeutic agents included Carboplatin, Taxol™, Gemzar™, Topotecan (Hycamtim™), and Doxil™. The percentage survival of the contacted SKOV3 cells was measured over 72 hours. Synergistic effects were calculated statistically using Calcusyn™ Software. A combination index (CI) less than 1 indicates synergy; a CI equal to 1 indicates additivity; a CI greater than 1 indicated antagonism.
# Combination indices were calculated to determine mathematical synergy using the median effect method per Calcusyn software (Biosoft, Ferguson, Mo.) as described above. […] Per prior definitions this represents Clear Synergy defined as CI<0.7. This level of synergy would result in a 2- to 14-fold reduction of carboplatin dose required with the addition of BMS-833923. (Table 5 and FIG. 9).
# The dose reduction index (DRI) was determined for experimental values using the Calcusyn software package, with the relative CI and the fraction affected to determine the relative reduction in a dose to achieve similar effects with a single agent (Table 6).
# [2] = tested on: GLI1; assay: Localization of Gli1 by immunofluorescent staining in SKOV3 cells; format: cell-based; conditions: SKOV3, 24 hours treatment
# Experimental: Considering intranuclear Gli1 confers an activated Hh pathway, SKOV3 cells were evaluated for Gli1 location after BMS-833923 treatment and compared to control (no treatment). Cells were grown on Poly-L-Lysine coated Glass Coverslips (BD Bioscience) for overnight, then incubated with 5 μM BMS-833923 for 24 hours, respectively, fixed in 4% paraformaldehyde for 15 minutes at room temperature, washed with PBS and permeabilized with 0.25% Triton X-100 (Sigma) for 10 minutes. Primary antibody (Anti-human Gli1 antibody, Santa Cruz Biotechnology, Inc.) incubation followed for overnight at 4° C. After washing thoroughly with PBS, cells were further probed with secondary antibody (anti-rabbit IgG-FITC, Sigma) for one hour at room temperature. Nuclei were counterstained with diluted DAPI (Sigma) for 3 minutes before mounting and analyzing with microscope.
# SKOV3 cells were treated with 2.5 μBMS-833923 and the cellular location of Gli1 determined at various times using immunofluorescence. Immunofluorescence analysis was performed as described above. In untreated control cell, Gli1 is concentrated in the nucleus at 24 hrs, indicating an activated Hh pathway. […] Both indicating restriction of Gli1 from the nucleus and inhibition of Hh pathway.
# [3] = tested on: A2780 xenografts; assay: Xenograft tumor growth, carboplatin-sensitive model; format: in vivo; conditions: SCID mice; BMS-833923 100 mg/kg i.p. daily, Carboplatin 40 mg/kg i.p. twice a week, two weeks
# Experimental: Female SCID mice 6-8 weeks old were inoculated i.p. with 5×10^6 A2780 or A2780/CP70 cells suspended in 200 μL PBS (PH 7.4). Seven days later when the tumor reached a size of greater than 150 mm^3, the mice were randomly divided into 4 groups (8 mice per group) as follows: (1) PBS-treated control; (2) BMS-833923 alone (100 mg/kg, i.p. daily, two weeks); (3) Carboplatin alone (40 mg/kg, i.p. twice a week, two weeks); (4) Combination of BMS-833923 and Carboplatin treatment. Mice were weighed and tumor diameters were measured with calipers every 2-3 days for 20 days. The tumor volumes (mm^3) were calculated as (W^2×L)/2, where W and L are the minor and major diameters (in millimeters), respectively.
# Xenograft experiments were performed as described above. Carboplatin was dosed days 7, 11, 14, 18; BMS-833923 was dosed days 8 through 20. The experiment was terminated due to excessive tumor size in vehicle and BMS-833923 treatment groups.
# [4] = tested on: GLI1; assay: Quantitative RT-PCR of Hedgehog pathway mediators in SKOV3 cells; format: cell-based
# Experimental: (§1) Total RNA was isolated using Trizol reagent from ovarian cancer cell line monolayer and spheroids-forming cells according to the manufacturer instructions (Invitrogen Corporation, Carlsbad, Calif.) and cDNA was prepared using High Capacity Reverse Transcriptase Kit (Applied Biosystem, Foster City, Calif.). Real-time PCR was performed using a Bio-Rad iQ5 Real-time Detection system (Bio-Rad). All reactions were done as three independent replicates. All assays were done using the TaqMan Gene Expression Assays from Applied Biosystems. Primers and probes for the TaqMan system were selected from the Applied Biosystems website. [Gli1 assay ID: Hs01110766 ml, Patched (PTCH) assay ID: Hs00970980 ml. The relative expression mRNA levels of GLI1, and PTCH were normalized to internal control glyceraldehyde-3-phosphate dehydrogenase (assay ID: Hs99999905 ml) levels (2^−δδCT).
# (§2) Quantitative realtime PCR (RT-PCR) was performed as described above. To assess the effects of inhibition of SMO by BMS-833923, levels of GLI1 and PTCH were measured by quantitative RT-PCR. SKOV3 ovarian cancer cell line was treated with 2.5 μM BMS-833923 for 24 hr and 48 hr and compared to untreated controls.
# [5] = tested on: PTCH; assay: as above; format: cell-based
# Experimental: as §1, §2
smiles,measurement,setting,value
"CNCc1ccc(C)c(NC(=O)c2ccc(Nc3nc(-c4ccccc4)c4ccccc4n3)cc2)c1 [BMS-833923, N-{2-methyl-5-[(methylamino)methyl]phenyl}-4-[(4-phenylquinazolin-2-yl)amino]benzamide]",BMS-833923 DRI,[1]; fraction affected 16.6%,2.314
same,BMS-833923 single agent dose to achieve the fraction affected,[1]; fraction affected 16.6%,9.2573 µM
same,BMS-833923 DRI,[1]; fraction affected 29.1%,3.223
same,BMS-833923 single agent dose to achieve the fraction affected,[1]; fraction affected 29.1%,12.8916 µM
same,BMS-833923 DRI,[1]; fraction affected 38.4%,3.120
same,BMS-833923 single agent dose to achieve the fraction affected,[1]; fraction affected 38.4%,15.6024 µM
same,BMS-833923 DRI,[1]; fraction affected 41.8%,3.330
same,BMS-833923 single agent dose to achieve the fraction affected,[1]; fraction affected 41.8%,16.6516 µM
same,cellular location of Gli1,[2],near complete exclusion of intranuclear GLl1; also recorded: Gli1 being excluded from the nucleus
same,effect on growth of A2780 xenografts in vivo,[3],little effect
same,decrease in GLI1 activity (RTQ),"[4]; SKOV3, 2.5 μM, 24 hr and 48 hr, vs untreated",10 fold
same,downregulation of GLI1 protein compared to untreated controls,[4]; as stated in the description,5 fold
same,PTCH activity compared to untreated controls,"[5]; SKOV3, 2.5 μM, 24 hr and 48 hr",down-regulation in activity
same,downregulation of PTCH protein compared to untreated controls,[5]; as stated in the description,3 fold
